In patent publication US8377961B2, “Cyclic-alkylamine derivatives as inhibitors of the interaction between MDM2 and P53” (Janssen Pharmaceutica N.V., priority 2006, dated 2013):
Read-outs that look alike come from different tables or passages of the source.

How the values were obtained:
U87MG cells = experiment: Proliferation assay (MTT-based) on U87MG tumour cells; format: cell-based; settings: Homo sapiens, U-87 MG, 96 h, 4 days of incubation
Protocol: Cellular activity of the compounds of formula (I) was determined on U87MG tumour cells using a colorimetric assay for cell toxicity or survival (see example C.2).
U87MG cells are human glioblastoma cells with wild type p53. In this cell line MDM2 tightly controls p53 expression.
All compounds tested were dissolved in DMSO and further dilutions were made in culture medium. Final DMSO concentrations never exceeded 0.1% (v/v) in cell proliferation assays. Controls contained U87MG cells and DMSO without compound and blanks contained DMSO but no cells.
U87MG cells were seeded in 96-well cell culture plates at 3000 cells/well/100 μl. 24 hours later, medium was changed and compound and/or solvent were added to a final volume of 200 μl. Following 4 days of incubation, medium was replaced by 200 μl fresh medium and cell growth was assessed using a MTT-based assay. Therefore, 25 μl of the MTT solution (0.5% MTT research grade from Serva in phosphate-buffered saline) was added to each well and the cells were further incubated for 2 hours at 37° C. The medium was then carefully aspirated and the blue MTT-formazan product was dissolved by adding to each well 25 μl 0.1M glycin and 100 μl DMSO. The plates were shaken for another 10 min on a micro plate shaker before reading absorbance at 540 nm by a Biorad micro plate reader.
Within an experiment, the results for each experimental condition are the mean of 3 replicate wells. For initial screening purposes, compounds were tested at a single fixed concentration of 10^−5 M. For active compounds, the experiments were repeated to establish full concentration-response curves. For each experiment, controls (containing no drug) and a blank incubation (containing no cells or drugs) were run in parallel. The blank value was subtracted from all control and sample values. For each sample, the mean value for cell growth (in absorbance units) was expressed as a percentage of the mean value for cell growth of the control. When appropriate, IC50-values (concentration of the drug, needed to reduce cell growth to 50% of the control) were computed using probit analysis for graded data (Finney, D. J., Probit Analyses, 2nd Ed. Chapter 10, Graded Responses, Cambridge University Press, Cambridge 1962). Herein the effects of test compounds are expressed as pIC50 (the negative log value of the IC50-value) (see table F-2).
In some of the experiments the proliferation assay was adapted for and used in 384-well culture plates (see table F-2).

p53 in A2780 cells = experiment: p53 ELISA (capacity to preserve p53 in A2780 cells); format: cell-based; settings: lowest dose giving at least 140% of the value for p53 present in the control; A2780 cells treated with compound for 16 hours
Protocol: The capacity of the compounds to preserve p53 in A2780 cells was measured with the p53 enzyme linked immunosorbent assay. The p53 assay is a “sandwich” enzyme immunoassay employing two polyclonal antibodies. A polyclonal antibody, specific for the p53 protein, has been immobilized onto the surface of the plastic wells. Any p53 present in the sample to be assayed will bind to the capture antibody. The biotinylated detector polyclonal antibody also recognizes p53 protein, and will bind to any p53, which has been retained by the capture antibody. The detector antibody, in turn, is bond by horseradish peroxidase-conjugated streptavidin. The horseradish peroxidase catalyses the conversion of the chromogenic substrate o-phenylene diamine, the intensity of which is proportional to the amount of p53 protein bond to the plate. The colored reaction product is quantified using a spectrophotometer. Quantitation is achieved by the construction of a standard curve using known concentrations of purified recombinant HIS tagged p53 protein (see example C.1.).
A2780 cells (ATCC) were cultivated in RPMI 1640 supplemented with 10% fetal calf serum (FCS), 2 mM L-glutamine and gentamycin at 37° C. in a humidified incubator with 5% CO2.
A2780 cells were seeded at 20.000 cells per well in a 96 well plate, cultured for 24 hours and treated with compound for 16 hours at 37° C. in a humidified incubator. After incubation, the cells were washed once with phosphate-buffered saline and 30 μl, per well, low salt RIPA buffer (20 mM tris, pH7.0, 0.5 mM EDTA, 1% Nonidet P40, 0.5% DOC, 0.05% SDS, 1 mM PMSF, 1 μg/ml aprotinin and 0.5 μ/ml leupeptin) was added. Plates were placed on ice for 30 minutes to complete the lysis. p53 protein was detected in de lysates by using the sandwich ELISA, described below.
High binding polystyrene EIA/RIA 96 well plates (Costar 9018) were coated with the capture antibody pAb1801 (Abcam ab28-100) at a concentration of 1 μg/ml in coating buffer (0.1 M NaHCO3 pH8.2), 50 μl per well. The antibody was allowed to adhere overnight at 4° C. Coated plates were washed once with phosphate-buffered saline (PBS)/0.05% Tween 20 and 300 μl of blocking buffer (PBS, 1% bovine serum albumins (BSA)) was added, for an incubation period of 2 hours at room temperature. Dilutions of purified recombinant HIS tagged p53 protein, ranging from 3-200 ng/ml, were made in blocking buffer and used as standards.
Plates were washed twice with PBS/0.05% Tween 20 and blocking buffer or standards were added at 80 μl/well. To the standards, 20 μl of lysis buffer was added. The samples were added to the other wells at 20 μl lysate/well. After an overnight incubation at 4° C., plates were washed twice with PBS/0.05% Tween 20. Aliquots of 100 μl secondary polyclonal antibody p53(FL-393) (Tebubio, sc-6243) at a concentration of 1 μg/ml in blocking buffer were added to each well and allowed to adhere for 2 hours at room temperature. Plates were washed three times with PBS/0.05% Tween 20. Detection antibody anti-rabbit HRP (sc-2004, Tebubio) at 0.04 μg/ml in PBS/1% BSA was added and incubated for 1 hour at room temperature. Plates were washed three times with PBS/0.05% Tween 20 and 100 μl of substrate buffer was added (substrate buffer was prepared shortly before use by adding 1 tablet of 10 mg o-phenylene diamine (OPD) from Sigma and 125 μl 3% H2O2 to 25 ml OPD buffer: 35 mM citric acid, 66 mM Na2HPO4, pH5.6). After 5 to 10 minutes, colour reaction was stopped by adding 50 μl stop buffer (1 M H2SO4) per well. The absorbance at dual wavelengths of 490/655 nm was measured using a Biorad micro plate reader and the results were then analyzed.
For each experiment, controls (containing no drug) and a blank incubation (containing no cells or drugs) were run in parallel. The blank value was subtracted from all control and sample values. For each sample, the value of p53 (in absorbance units) was expressed as the percentage of the value for p53 present in the control. […]

[1] = 96-well plates, read-out: cell proliferation pIC50 96 well (converted)

Row | SMILES | IC50 (U87MG cells; [1]) [nM] | IC50 (U87MG cells; 384-well culture plates, read-out: cell proliferation pIC50 384 well (converted)) [nM] | A2780 p53-elisa LAD (p53 in A2780 cells) [µM]
1 | c1ccc2c(CCNc3ccc4c(c3)CCN4c3ccncc3)c[nH]c2c1 [Compound 1] | 10 |  | 0.1
2 | c1ccc2c(N3CCc4cc(NCCc5c[nH]c6ccccc56)ccc43)ccnc2c1 [Compound 2] | 1700 |  | 1

Now from value to compound, other results behind:

Row | IC50 (U87MG cells; [1]) [nM] | IC50 (U87MG cells; 384-well culture plates, read-out: cell proliferation pIC50 384 well (converted)) [nM] | SMILES | A2780 p53-elisa LAD (p53 in A2780 cells) [µM]
3 | 4170 |  | COC(=O)c1cc(N2CCc3cc(NCCc4c[nH]c5ccccc45)ccc32)ccn1 [Compound 3] | 1
4 | 158 |  | OCc1cc(N2CCc3cc(NCCc4c[nH]c5ccccc45)ccc32)ccn1 [Compound 4] | 0.3
5 | 295 |  | OC1CCc2c(N3CCc4cc(NCCc5c[nH]c6ccccc56)ccc43)ccnc21 (stereo not drawn) [Compound 5] | 0.3
6 |  | 295 | CC1(C)CN(c2ccncc2)c2ccc(NCCc3c[nH]c4ccccc34)cc21 [Compound 6] | 3
